Experimental data published in patent US10960037B2, “Method of treating neurological conditions with extract of Nerium species or Thevetia species” (PHOENIX BIOTECHNOLOGY, INC., priority 2010, dated 2021).

Tested on: 5×-ARE-luciferase transcriptional reporter in primary corticostriatal neuronal co-cultures
Test: Nrf2 activation, 5×ARE-luciferase reporter assay
Assay type: cell-based, mouse
Conditions: 7 h and 24 h treatment
Protocol: Activation of the 5×-ARE luciferase reporter became stronger with an apparent left-shift in concentration-response for extended treatment over 24 h compared to 7 h. Fold-expression changes are expressed relative to the DMSO-carrier only condition (“0”) normalized to a co-transfected, constitutive Renilla luciferase control and set to a value of 1.
Primary corticostriatal neuronal co-cultures were prepared from E18 Sprague-Dawley rat or C57Bl/6 mouse embryos of either gender. For luciferase reporter assays, the Cignal Antioxidant Response Reporter kit (Qiagen) was used. The 5×ARE luciferase reporter mixture at 40:1 luciferase:Renilla plasmid was transfected into cortical and striatal neurons separately using an Amaxa electroporation device (Lonza). After electroporation, neurons were pooled and immediately plated into 96-well plates containing mature glial cultures. After culturing for 96 h, neuroprotective compositions were added at the indicated concentrations for 7 or 24 h prior to harvesting using Dual-Glo Luciferase Assay System protocol and reagents (Promega). Dual-wavelength luminescence was detected using a SpectraMax L microplate reader (Molecular Devices). Luciferase values were normalized to the internal Renilla control and fold-expression over the DMSO-only treatment control was calculated. At least 3 independent experiments were done using 4-6 biological replicates.

CC1(C)CC[C@]2(C(=O)O)CC[C@]3(C)[C@H](C(=O)C=C4[C@@]5(C)C=C(C#N)C(=O)C(C)(C)[C@@H]5CC[C@]43C)[C@@H]2C1 [bardoxolone]
induction of 5×-ARE-luciferase reporter: Concentration- and time-dependent induction
